According to patent publication US9328112B2, “Tetracyclic CDK9 kinase inhibitors” (AbbVie Inc., priority 2014, dated 2016):
Counter-ions that a name gives are not always drawn.

Experiments:
CDK9/Cyclin T1 = CDK9/Cyclin T1 (Homo sapiens (Human), UniProt P50750); experiment: CDK9 enzyme assay (LANCE ULight TR-FRET kinase assay); type: biochemical; details: 1000 μM ATP, 100 nM ULight MBP, kinase reaction 1 hour
Outline: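 TR-FRET readout (ex 320 nm; em 615/665 nm) after 1 h detection with 0.5 nM europium anti-phospho-MBP antibody in 20 mM EDTA stop buffer. Preceding 1 h kinase step: CDK9/Cyclin T1, ULight-MBP substrate at 100 nM, ATP at 1000 μM, compound pre-diluted in DMSO then buffer.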

H929 cells = experiment: Cell viability assay (Cell TiterGlo); type: cell-based; details: Homo sapiens, NCI-H929, 24 hours at 37° C., Cell TiterGlo luminescence
Procedure: The cell viability assay was performed using H929 cells. Cells were seeded in 96-well plates at 10,000 cells/well and, after overnight incubation, treated with compounds in a dose response of 3-fold dilutions from 10 μM to 0.005 μM ([…], 0.1% final DMSO concentration). After 24 hours at 37° C., cell viability was measured using Cell TiterGlo reagent (Promega) with a luminescence reader.

Chain of CDK9/Cyclin T1 (P50750 whole entry): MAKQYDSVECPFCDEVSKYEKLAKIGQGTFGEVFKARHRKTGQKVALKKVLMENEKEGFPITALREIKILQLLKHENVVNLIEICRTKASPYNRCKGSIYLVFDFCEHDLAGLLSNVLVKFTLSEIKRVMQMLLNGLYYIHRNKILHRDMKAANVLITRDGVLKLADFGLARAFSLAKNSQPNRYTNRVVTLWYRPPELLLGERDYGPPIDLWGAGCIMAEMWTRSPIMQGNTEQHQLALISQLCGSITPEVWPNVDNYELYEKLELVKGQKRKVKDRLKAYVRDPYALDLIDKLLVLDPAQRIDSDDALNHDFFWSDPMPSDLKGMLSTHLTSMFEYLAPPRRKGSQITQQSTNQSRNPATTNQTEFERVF
Chain of CDK9/Cyclin T1 (O60563 whole entry partner): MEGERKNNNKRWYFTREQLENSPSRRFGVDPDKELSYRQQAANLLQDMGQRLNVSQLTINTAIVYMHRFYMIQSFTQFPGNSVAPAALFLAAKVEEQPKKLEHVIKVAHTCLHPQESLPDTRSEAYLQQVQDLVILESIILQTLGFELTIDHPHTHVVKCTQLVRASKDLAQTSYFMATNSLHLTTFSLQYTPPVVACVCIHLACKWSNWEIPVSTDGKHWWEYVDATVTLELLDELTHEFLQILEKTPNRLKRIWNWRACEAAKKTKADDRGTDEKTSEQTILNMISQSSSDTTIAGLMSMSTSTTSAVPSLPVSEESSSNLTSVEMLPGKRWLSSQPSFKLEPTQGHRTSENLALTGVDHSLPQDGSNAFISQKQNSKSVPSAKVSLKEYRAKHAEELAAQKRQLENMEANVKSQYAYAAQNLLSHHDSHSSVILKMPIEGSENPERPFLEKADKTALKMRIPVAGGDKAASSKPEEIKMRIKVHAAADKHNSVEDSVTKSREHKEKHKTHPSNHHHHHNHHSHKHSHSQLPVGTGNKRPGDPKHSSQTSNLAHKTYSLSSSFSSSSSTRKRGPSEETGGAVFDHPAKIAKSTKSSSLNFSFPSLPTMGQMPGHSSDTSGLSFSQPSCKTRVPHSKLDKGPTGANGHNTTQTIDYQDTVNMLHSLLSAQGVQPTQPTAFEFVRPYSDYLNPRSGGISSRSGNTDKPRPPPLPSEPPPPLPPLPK

| Structure (SMILES) | IC50 (CDK9/Cyclin T1) | IC50 (H929 cells) |
| --- | --- | --- |
| CN1Cc2c(C3=CCN(CC(=O)N4CC(O)C4)CC3)[nH]c3nccc(c23)-c2cc(F)c(F)cc21 [Example 137, 2-[4-(9,10-difluoro-7-methyl-6,7-dihydro-4H-3,4,7-triazadibenzo[cd,f]azulen-5-yl)-3,6-dihydropyridin-1(2H)-yl]-1-(3-hydroxyazetidin-1-yl)ethanone] | 52 nM | 45 nM |
| CN1Cc2c(C3=CCN(CC(=O)O)CC3)[nH]c3nccc(c23)-c2cc(F)ccc21 [Example 16, [4-(10-fluoro-7-methyl-6,7-dihydro-4H-3,4,7-triazadibenzo[cd,f]azulen-5-yl)-3,6-dihydropyridin-1(2H)-yl]acetic acid dihydrochloride] | 61 nM | 220 nM |
| CN1Cc2c(C3=CCN(CC(=O)N(C)C4CC(O)C4)CC3)[nH]c3ncc(F)c(c23)-c2cc(F)ccc21 (stereo not shown) [Example 109, 2-[4-(1,10-difluoro-7-methyl-6,7-dihydro-4H-3,4,7-triazadibenzo[cd,f]azulen-5-yl)-3,6-dihydropyridin-1(2H)-yl]-N-(3-hydroxycyclobutyl)-N-methylacetamide] | 43 nM | 10 nM |
| COC(=O)C(C)=C1CCC(N2CC=C(c3[nH]c4nccc5c4c3CN(C)c3ccc(F)cc3-5)CC2)CC1 (stereo not shown) [Example 174, methyl 2-{4-[4-(10-fluoro-7-methyl-6,7-dihydro-4H-3,4,7-triazadibenzo[cd,f]azulen-5-yl)-3,6-dihydropyridin-1(2H)-yl]cyclohexylidene}propanoate] | 57 nM | 120 nM |
| CN(C)C(=O)CN1CC=C(c2[nH]c3nccc4c3c2CN(C)c2cc(F)c(F)cc2-4)CC1 [Example 132, 2-[4-(9,10-difluoro-7-methyl-6,7-dihydro-4H-3,4,7-triazadibenzo[cd,f]azulen-5-yl)-3,6-dihydropyridin-1(2H)-yl]-N,N-dimethylacetamide] | 40 nM | 14 nM |
| CN1Cc2c(C3=CCN(C4CCC(=CC(=O)OC(C)(C)C)CC4)CC3)[nH]c3nccc(c23)-c2cc(F)ccc21 (stereo not shown) [Example 175, tert-butyl{4-[4-(10-fluoro-7-methyl-6,7-dihydro-4H-3,4,7-triazadibenzo[cd,f]azulen-5-yl)-3,6-dihydropyridin-1(2H)-yl]cyclohexylidene}acetate] | 120 nM | 490 nM |
| CN1Cc2c(C3=CCNCC3)[nH]c3nccc(c23)-c2cc(F)ccc21 [Example 1, 10-fluoro-7-methyl-5-(1,2,3,6-tetrahydropyridin-4-yl)-6,7-dihydro-4H-3,4,7-triazadibenzo[cd,f]azulene] | 21 nM | 40 nM |
| CN(CC(O)CO)C(=O)CN1CC2C=C(c3[nH]c4nccc5c4c3CN(C)c3ccc(F)cc3-5)CC2C1 (stereo not shown) [Example 85, N-(2,3-dihydroxypropyl)-2-[5-(10-fluoro-7-methyl-6,7-dihydro-4H-3,4,7-triazadibenzo[cd,f]azulen-5-yl)-3,3a,4,6a-tetrahydrocyclopenta[c]pyrrol-2(1H)-yl]-N-methylacetamide] | 99 nM | 250 nM |
| CN1Cc2c(C3=CCN(CC(=O)N4CCC[C@@H]4CO)CC3)[nH]c3ncc(F)c(c23)-c2cc(F)ccc21 [Example 75, 2-[4-(1,10-difluoro-7-methyl-6,7-dihydro-4H-3,4,7-triazadibenzo[cd,f]azulen-5-yl)-3,6-dihydropyridin-1(2H)-yl]-1-[(2R)-2-(hydroxymethyl)pyrrolidin-1-yl]ethanone] | 51 nM | 8 nM |
| CN1Cc2c(C3=CC4CNCC4C3)[nH]c3nccc(c23)-c2cc(F)ccc21 (stereo not shown) [Example 59, 10-fluoro-5-(1,2,3,3a,4,6a-hexahydrocyclopenta[c]pyrrol-5-yl)-7-methyl-6,7-dihydro-4H-3,4,7-triazadibenzo[cd,f]azulene] | 88 nM | 190 nM |
| CCOC(=O)C1CC=C(c2[nH]c3nccc4c3c2CN(C)c2ccc(F)cc2-4)CC1 (stereo not shown) [Example 61, ethyl 4-(10-fluoro-7-methyl-6,7-dihydro-4H-3,4,7-triazadibenzo[cd,f]azulen-5-yl)cyclohex-3-ene-1-carboxylate] | 400 nM | 1200 nM |
| CN(C)C(=O)CN1CC=C(c2[nH]c3nccc4c3c2CN(C)c2ccc(F)cc2-4)C(C)(C)C1 [Example 114, 2-[4-(10-fluoro-7-methyl-6,7-dihydro-4H-3,4,7-triazadibenzo[cd,f]azulen-5-yl)-3,3-dimethyl-3,6-dihydropyridin-1(2H)-yl]-N,N-dimethylacetamide] | 870 nM | 3400 nM |
| CN1Cc2c(C3=CCN(S(C)(=O)=O)CC3)[nH]c3nccc(c23)-c2cc(F)ccc21 [Example 4, 10-fluoro-7-methyl-5-[1-(methylsulfonyl)-1,2,3,6-tetrahydropyridin-4-yl]-6,7-dihydro-4H-3,4,7-triazadibenzo[cd,f]azulene] | 25 nM | 150 nM |
| CN1Cc2c(C3=CCNCC3)[nH]c3nccc(c23)-c2cc(F)c(F)cc21 [Example 144, 9,10-difluoro-7-methyl-5-(1,2,3,6-tetrahydropyridin-4-yl)-6,7-dihydro-4H-3,4,7-triazadibenzo[cd,f]azulene] | 29 nM | 7 nM |
| CCCN1Cc2c(C3=CCN(S(C)(=O)=O)CC3)[nH]c3nccc(c23)-c2cc(F)ccc21 [Example 6, 10-fluoro-5-[1-(methylsulfonyl)-1,2,3,6-tetrahydropyridin-4-yl]-7-propyl-6,7-dihydro-4H-3,4,7-triazadibenzo[cd,f]azulene] | 340 nM | 2100 nM |
| CN1Cc2c(C3=C[C@@H]4COC(=O)N4CC3)[nH]c3nccc(c23)-c2cc(F)ccc21 [Example 151, (8aR)-7-(10-fluoro-7-methyl-6,7-dihydro-4H-3,4,7-triazadibenzo[cd,f]azulen-5-yl)-1,5,6,8a-tetrahydro[1,3]oxazolo[3,4-a]pyridin-3-one] | 37 nM | 190 nM |
| CN(CCO)C(=O)CN1CC=C(c2[nH]c3nccc4c3c2CN(C)c2ccc(F)cc2-4)CC1 [Example 19, 2-[4-(10-fluoro-7-methyl-6,7-dihydro-4H-3,4,7-triazadibenzo[cd,f]azulen-5-yl)-3,6-dihydropyridin-1(2H)-yl]-N-(2-hydroxyethyl)-N-methylacetamide] | 48 nM | 8 nM |
| CN1Cc2c(C3=CCN(S(C)(=O)=O)CC3)[nH]c3nccc(c23)-c2cc(F)c(F)cc21 [Example 131, 9,10-difluoro-7-methyl-5-[1-(methylsulfonyl)-1,2,3,6-tetrahydropyridin-4-yl]-6,7-dihydro-4H-3,4,7-triazadibenzo[cd,f]azulene] | 36 nM | 79 nM |
| CN1Cc2c(C3=CCN(C(=O)OC(C)(C)C)CC3)[nH]c3ncc(F)c(c23)-c2cc(F)ccc21 [Example 49, tert-butyl 4-(1,10-difluoro-7-methyl-6,7-dihydro-4H-3,4,7-triazadibenzo[cd,f]azulen-5-yl)-3,6-dihydropyridine-1(2H)-carboxylate] | 780 nM | 780 nM |
| CN1Cc2c(-c3ccncc3)[nH]c3nccc(c23)-c2cc(F)ccc21 [Example 44, 10-fluoro-7-methyl-5-(pyridin-4-yl)-6,7-dihydro-4H-3,4,7-triazadibenzo[cd,f]azulene] | 130 nM | 490 nM |
| CN(CC(O)CO)C(=O)CN1CCC=C(c2[nH]c3nccc4c3c2CN(C)c2ccc(F)cc2-4)C1 (stereo not shown) [Example 123, N-(2,3-dihydroxypropyl)-2-[5-(10-fluoro-7-methyl-6,7-dihydro-4H-3,4,7-triazadibenzo[cd,f]azulen-5-yl)-3,6-dihydropyridin-1(2H)-yl]-N-methylacetamide] | 540 nM | 3100 nM |
| CN1Cc2c(C3=CCNCC3)[nH]c3ncc(F)c(c23)-c2ccccc21 [Example 159, 1-fluoro-7-methyl-5-(1,2,3,6-tetrahydropyridin-4-yl)-6,7-dihydro-4H-3,4,7-triazadibenzo[cd,f]azulene] | 34 nM | 8 nM |
| CN1Cc2c(C3=CCC(N[C@H](C(=O)O)c4ccccc4)CC3)[nH]c3nccc(c23)-c2cc(F)ccc21 (stereo partly drawn) [Example 32, (2S)-{[4-(10-fluoro-7-methyl-6,7-dihydro-4H-3,4,7-triazadibenzo[cd,f]azulen-5-yl)cyclohex-3-en-1-yl]amino}(phenyl)acetic acid] | 56 nM | 170 nM |
| CC[C@H]1c2c(C3=CCN([C@H]4C[C@H](C(=O)O)C4)CC3)[nH]c3nccc(c23)-c2cc(F)ccc2N1C [Example 189, trans-3-{4-[(6S)-6-ethyl-10-fluoro-7-methyl-6,7-dihydro-4H-3,4,7-triazadibenzo[cd,f]azulen-5-yl]-3,6-dihydropyridin-1(2H)-yl}cyclobutanecarboxylic acid] | 110 nM | 6 nM |
| CN1Cc2c(C3=CC4CCCC(C3)N4C(=O)CC#N)[nH]c3nccc(c23)-c2cc(F)ccc21 (stereo not shown) [Example 102, 3-[3-(10-fluoro-7-methyl-6,7-dihydro-4H-3,4,7-triazadibenzo[cd,f]azulen-5-yl)-9-azabicyclo[3.3.1]non-2-en-9-yl]-3-oxopropanenitrile] | 44 nM | 623 nM |
| CN1Cc2c(C3=CC4CCCC(C3)N4CC(=O)N3CC(O)C3)[nH]c3nccc(c23)-c2cc(F)ccc21 (stereo not shown) [Example 105, 2-[3-(10-fluoro-7-methyl-6,7-dihydro-4H-3,4,7-triazadibenzo[cd,f]azulen-5-yl)-9-azabicyclo[3.3.1]non-2-en-9-yl]-1-(3-hydroxyazetidin-1-yl)ethanone] | 98 nM | 190 nM |
